Among the data in patent US8835458B2 (Hanmi Science Co., Ltd, priority 2010, dated 2014) are GI50 values, retold here.

Where a name gives a salt, the structure may show the parent alone. Read-outs that look alike come from different tables or passages of the source.

Data set [1] concerns MDA-MB-231 breast cancer cell lines. As to the kind of experiment: Evaluation of inhibition on cell growth (MTS). It is filed as cell-based. The following applies: Homo sapiens, MDA-MB-231, 120 hours. A digest of the protocol:
(§1)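 GI50 values come from growth equations comparing treated, untreated and medium-only wells. Fibroblasts (Hs27, Balb/c3t3) got 72 h compound exposure with SRB read-out at 540 nm after TCA fixing. MDA-MB-231 got 120 h with MTS at 490 nm, across 10 μM˜0.1 nM.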

Data set [2] in a line: Toxicity to normal cells (SRB). In kind it is cell-based, human. The following applies: human, Hs27 fibroblasts (normal cell line). In short, it runs like this:
as §1

Data set [3] in a line: Toxicity to normal cells (SRB). The following applies: mouse, Balb/c3t3 fibroblasts (normal cell line), read-out: BalB/C (GI50). It is filed as cell-based, mouse. In short, it runs like this:
as §1

`CN[C@@H](C)C(=O)N[C@H](C(=O)N1CCC[C@H]1C(=O)Nc1cc2c(Nc3ccc(N(C)C)cc3)ncnc2cc1OC)C(C)(C)C` [Example 64, (S)-1-((S)-3,3-dimethyl-2-((S)-2-(methylamino)propanamido)butanoyl)-N-(7-methoxy-4-(4-dimethylamino)phenylamino)quinazolin-6-yl)pyrrolidine-2-carboxamide dihydrochloride] had a GI50 in data set [1] of no more than 0.1 µM. Moreover, the GI50 at 72 h in data set [2] and in data set [3] was greater than 10 µM each time.
Turning to `CN[C@@H](C)C(=O)N[C@H](C(=O)N1CCC[C@H]1C(=O)Nc1cc2c(N)ncnc2cc1OC)C(C)(C)C` [Example 36, (S)—N-(4-amino-7-methoxyquinazolin-6-yl)-1-((S)-3,3-dimethyl-2-((S)-2-(methylamino)propanamido)butanoyl)pyrrolidine-2-carboxamide], the GI50 in data set [1] was 0.1 to 1 µM. Also, the GI50 at 72 h in data set [2] and in data set [3] was greater than 10 µM each time.
Consider `CN[C@@H](C)C(=O)N[C@H](C(=O)N1CCC[C@H]1C(=O)Nc1cc2c(Nc3ccc(Oc4ccccc4)cc3)ncnc2cc1OC)C(C)(C)C` [Example 40, (S)-1-((S)-3,3-dimethyl-2-((S)-2-(methylamino)propanamido)butanoyl)-N-(7-methoxy-4-(4-phenoxyphenylamino)quinazolin-6-yl)pyrrolidine-2-carboxamide hydrochloride], for which the GI50 in data set [1] is no more than 0.1 µM. Moreover, the GI50 at 72 h in data set [2] and in data set [3] was greater than 10 µM each time.
The compound `CN[C@@H](C)C(=O)N[C@H](C(=O)N1CCC[C@H]1C(=O)Nc1cc2c(Nc3ccc4ccccc4c3)ncnc2cc1OC)C(C)(C)C` [Example 32, (S)-1-((S)-3,3-dimethyl-2-((S)-2-(methylamino)propanamido)butanoyl)-N-(7-methoxy-4-(naphthalen-2-ylamino)quinazolin-6-yl)pyrrolidine-2-carboxamide] gave a GI50 in data set [1] of no more than 0.1 µM. The GI50 at 72 h in data set [2] and in data set [3] was greater than 10 µM throughout.
For `CN[C@@H](C)C(=O)N[C@H](C(=O)N1CCC[C@H]1C(=O)Nc1cc2c(N[C@@H](C)c3ccccc3)ncnc2cc1OC)C(C)(C)C` [Example 34, (S)-1-((S)-3,3-dimethyl-2-((S)-2-(methylamino)propanamido)butanoyl)-N-(7-methoxy-4-((S)-1-phenylmethylamino)quinazolin-6-yl)pyrrolidine-2-carboxamide hydrochloride], the GI50 in data set [1] is no more than 0.1 µM. Besides, the GI50 at 72 h in data set [2] and in data set [3] was greater than 10 µM each time.
Compound `CCN(CC)c1ccc(Nc2ncnc3cc(OC)c(NC(=O)[C@@H]4CCCN4C(=O)[C@@H](NC(=O)[C@H](C)NC)C(C)(C)C)cc23)cc1` [Example 68, (S)-1-((S)-3,3-dimethyl-2-((S)-2-(methylamino)propanamido)butanoyl)-N-(7-methoxy-4-(4-diethylamino)phenylamino)quinazolin-6-yl)pyrrolidine-2-carboxamide dihydrochloride] showed a GI50 in data set [1] of no more than 0.1 µM. For the same compound, the GI50 at 72 h in data set [2] and in data set [3] was greater than 10 µM each time.
Take `CN[C@@H](C)C(=O)N[C@H](C(=O)N1CCC[C@H]1C(=O)Nc1cc2c(Nc3ccc(F)c(Cl)c3F)ncnc2cc1O[C@@H]1CCOC1)C(C)(C)C` [Example 16, (S)—N-(4-(3-chloro-2,4-difluorophenylamino)-7-((R)-tetrahydrofuran-3-yloxy)quinazolin-6-yl)-1-((S)-3,3-dimethyl-2-((S)-2-(methylamino)propanamido)butanoyl)pyrrolidine-2-carboxamide hydrochloride]: the GI50 in data set [1] fell in the range of 0.1 to 1 µM. The GI50 at 72 h in data set [2] and in data set [3] was greater than 10 µM each time.
Regarding `CN[C@@H](C)C(=O)N[C@H](C(=O)N1CCC[C@H]1C(=O)Nc1cc2c(Nc3ccccn3)ncnc2cc1OC)C(C)(C)C` [Example 33, (S)-1-((S)-3,3-dimethyl-2-((S)-2-(methylamino)propanamido)butanoyl)-N-(7-methoxy-4-(pyridin-2-ylamino)quinazolin-6-yl)pyrrolidine-2-carboxamide], in data set [1], the GI50 is no more than 0.1 µM. Further, the GI50 at 72 h in data set [2] and in data set [3] was greater than 10 µM throughout.
With `CN[C@@H](C)C(=O)N[C@H](C(=O)N1CCC[C@H]1C(=O)Nc1cc2c(NC3CCCCC3)ncnc2cc1OC)C(C)(C)C` [Example 38, (S)—N-(4-(cyclohexylamino)-7-methoxyquinazolin-6-yl)-1-((S)-3,3-dimethyl-2-((S)-2-(methylamino)propanamido)butanoyl)pyrrolidine-2-carboxamide hydrochloride], the GI50 in data set [1] was no more than 0.1 µM. The GI50 at 72 h in data set [2] and in data set [3] was greater than 10 µM throughout.
In the case of `CN[C@@H](C)C(=O)N[C@H](C(=O)N1CCC[C@H]1C(=O)Nc1cc2c(Nc3ccccc3OC)ncnc2cc1OC)C(C)(C)C` [Example 30, (S)—N-(4-(2-methoxyphenylamino)-7-methoxyquinazolin-6-yl)-1-((S)-3,3-dimethyl-2-((S)-2-(methylamino)propanamido)butanoyl)pyrrolidine-2-carboxamide hydrochloride], the GI50 in data set [1] is no more than 0.1 µM. The GI50 at 72 h in data set [2] and in data set [3] was greater than 10 µM each time.
In data set [1], `CN[C@@H](C)C(=O)N[C@H](C(=O)N1CCC[C@H]1C(=O)Nc1cc2c(Nc3ccc(F)c(Cl)c3F)ncnc2cc1O[C@H]1CCOC1)C(C)(C)C` [Example 14, (S)—N-(4-(3-chloro-2,4-difluorophenylamino)-7-((S)-tetrahydrofuran-3-yloxy)quinazolin-6-yl)-1-((S)-3,3-dimethyl-2-((S)-2-(methylamino)propanamido)butanoyl)pyrrolidine-2-carboxamide hydrochloride] registered a GI50 of no more than 0.1 µM. Also, the GI50 at 72 h in data set [2] and in data set [3] was greater than 10 µM in each case.
On to `CN[C@@H](C)C(=O)N[C@H](C(=O)N1CCC[C@H]1C(=O)Nc1cc2c(Nc3cccc(F)c3F)ncnc2cc1OC)C(C)(C)C` [Example 42, (S)—N-(4-(2,3-difluorophenylamino)-7-methoxyquinazolin-6-yl)-1-((S)-3,3-dimethyl-2-((S)-2-(methylamino)propanamido)butanoyl)pyrrolidine-2-carboxamide hydrochloride], for which the GI50 in data set [1] is no more than 0.1 µM. Besides, the GI50 at 72 h in data set [2] and in data set [3] was greater than 10 µM in each case.
As to `CN[C@@H](C)C(=O)N[C@H](C(=O)N1CCC[C@H]1C(=O)Nc1cc2c(Nc3cccc4ncccc34)ncnc2cc1OC)C(C)(C)C` [Example 63, (S)-1-((S)-3,3-dimethyl-2-((S)-2-(methylamino)propanamido)butanoyl)-N-(7-methoxy-4-(quinoline-5-ylamino)quinazolin-6-yl)pyrrolidine-2-carboxamide hydrochloride], in data set [1], the GI50 was no more than 0.1 µM. In addition, the GI50 at 72 h in data set [2] and in data set [3] was greater than 10 µM each time.
Consider `CCN1CCN(c2ccc(Nc3ncnc4cc(OC)c(NC(=O)[C@@H]5CCCN5C(=O)[C@@H](NC(=O)[C@H](C)NC)C(C)(C)C)cc34)cc2C(F)(F)F)CC1` [Example 70, (S)-1-((S)-3,3-dimethyl-2-((S)-2-(methylamino)propanamido)butanoyl)-N-(4-(4-(4-ethylpiperazin-1-yl)-3-(trifluoromethyl)phenylamino)-7-methoxyquinazolin-6-yl)pyrrolidine-2-carboxamide dihydrochloride], for which the GI50 in data set [1] was no more than 0.1 µM. Besides, the GI50 at 72 h in data set [2] and in data set [3] was greater than 10 µM each time.
On to `CN[C@@H](C)C(=O)N[C@H](C(=O)N1CCC[C@H]1C(=O)Nc1cc2c(Nc3c(Cl)ccc4c3OCO4)ncnc2cc1OC)C(C)(C)C` [Example 51, (S)—N-(4-(5-chlorobenzo[d][1,3]dioxol-4-ylamino)-7-methoxyquinazolin-6-yl)-1-((S)-3,3-dimethyl-2-((S)-2-(methylamino)propanamido)butanoyl)pyrrolidine-2-carboxamide hydrochloride], for which the GI50 in data set [1] was no more than 0.1 µM. Besides, the GI50 at 72 h in data set [2] and in data set [3] was greater than 10 µM each time.
As to `CN[C@@H](C)C(=O)N[C@H](C(=O)N1CCC[C@H]1C(=O)Nc1cc2c(Nc3ccccc3Br)ncnc2cc1OC)C(C)(C)C` [Example 22, (S)—N-(4-(2-bromophenylamino)-7-methoxyquinazolin-6-yl)-1-((S)-3,3-dimethyl-2-((S)-2-(methylamino)propanamido)butanoyl)pyrrolidine-2-carboxamide hydrochloride], the GI50 in data set [1] is no more than 0.1 µM. Also, the GI50 at 72 h in data set [2] and in data set [3] was greater than 10 µM throughout.
For the compound `CN[C@@H](C)C(=O)N[C@H](C(=O)N1CCC[C@H]1C(=O)Nc1cc2c(Nc3ccc(-c4ccccc4)cc3)ncnc2cc1OC)C(C)(C)C` [Example 39, (S)—N-(4-(biphenyl-4-ylamino)-7-methoxyquinazolin-6-yl)-1-((S)-3,3-dimethyl-2-((S)-2-(methylamino)propanamido)butanoyl)pyrrolidine-2-carboxamide hydrochloride], the GI50 in data set [1] was no more than 0.1 µM. The GI50 at 72 h in data set [2] and in data set [3] was greater than 10 µM in each case.
On to `CN[C@@H](C)C(=O)N[C@H](C(=O)N1CCC[C@H]1C(=O)Nc1cc2c(Nc3ccc4c(c3)OCO4)ncnc2cc1OC)C(C)(C)C` [Example 61, (S)—N-(4-(benzo[d][1,3]dioxol-5-ylamino)-7-methoxyquinazolin-6-yl)-1-((S)-3,3-dimethyl-2-((S)-2-(methylamino)propanamido)butanoyl)pyrrolidine-2-carboxamide], for which the GI50 in data set [1] was no less than 1 µM. Also, the GI50 at 72 h in data set [2] and in data set [3] was greater than 10 µM throughout.
